The text below walks through data of patent publication US11123432B2, “Antimicrobial insect repellent composition” (YEDITEPE UNIVERSITESi, priority 2016, dated 2021).

For series [1] the following is noted: result of many toxicity experiments; cited from earlier work.
The next series has as its system Poliovirus Type 1 (PV-1). It is filed as cell-based, Poliovirus type 1 Chat strain. To be noted: for reduction in virus titer: PV-1 (Table 5), ratio 1/1, 20° C., clean and contaminated media; for Ratio of reduction in virus titer: EBAAP; for EBAAP virus titer: untreated virus titer 5.0.
Another series has as its system Adenovirus Type 5 (Av-5). It is filed as cell-based, Human adenovirus type 5 Adenoid 75 strain. To be noted: for reduction in virus titer: AV-5 (Table 4), ratio 1/1, 20° C., clean and contaminated media; for Ratio of reduction in virus titer: EBAAP; for EBAAP virüs titer: untreated virus titer 6.0.
Another series concerns enteric bacteria. To be noted: Bailey et al. (1980); cited from earlier work.
A further series deals with Penicillium expansium. To be noted: Qin et al. (2007); cited from earlier work.
The mark [2] stands for this setting: PV-1, 5 minutes, contaminated medium.
Where [3] appears, read: PV-1, 60 minutes, contaminated medium.
Setting [4] is: AV-5, 5 minutes, contaminated medium.
Setting [5] is: AV-5, 60 minutes, contaminated medium.

Structures are written as SMILES. Read-outs that look alike come from different tables or passages of the source.

In the case of `CCCCN(CCC(=O)OCC)C(C)=O` [EBAAP, Ethyl Butyl acetylaminopropionate], in series [1], the “irritation on the skin” value was “does not cause irritation on the skin”. The “reduction in virus titer” value with Poliovirus Type 1 (PV-1) (5 minutes) is listed as 2 log; in the series with Poliovirus Type 1 (PV-1) (60 minutes) it was 4 log; in the series on Adenovirus Type 5 (Av-5) (5 minutes) it was 2 log; in the series on Adenovirus Type 5 (Av-5) (60 minutes) it was 4 log. For the same compound, the “Ratio of reduction in virus titer” value is 2.0 Logarithmic TCID50 in the series on Poliovirus Type 1 (PV-1) (PV-1, 5 minutes, clean medium); 2.0 Logarithmic TCID50 in the series with Poliovirus Type 1 (PV-1) (setting [2]); 4.0 Logarithmic TCID50 with Poliovirus Type 1 (PV-1) (PV-1, 60 minutes, clean medium); 4.0 Logarithmic TCID50 in the series with Poliovirus Type 1 (PV-1) (setting [3]); 2.0 Logarithmic TCID50 in the series with Adenovirus Type 5 (Av-5) (AV-5, 5 minutes, clean medium); 2.0 Logarithmic TCID50 in the series on Adenovirus Type 5 (Av-5) (setting [4]). Moreover, the “Ratio of reduction in virus titer” value in the series on Adenovirus Type 5 (Av-5) (AV-5, 60 minutes, clean medium) is listed as 4.0 Logarithmic TCID50; in the series with Adenovirus Type 5 (Av-5) (setting [5]) it was 4.0 Logarithmic TCID50. For the same compound, the EBAAP virus titer with Poliovirus Type 1 (PV-1) (PV-1, 5 minutes, clean medium) turned out to be 3.0 Logarithmic TCID50; in the series on Poliovirus Type 1 (PV-1) (setting [2]), 3.0 Logarithmic TCID50; in the series on Poliovirus Type 1 (PV-1) (PV-1, 60 minutes, clean medium), 1.0 Logarithmic TCID50; in the series with Poliovirus Type 1 (PV-1) (setting [3]), 1.0 Logarithmic TCID50. For the same compound, the active against virus in the series with Poliovirus Type 1 (PV-1) (PV-1, used undiluted, 20° C., 60 minute application) turned out to be 99.9%; in the series with Adenovirus Type 5 (Av-5) (AV-5, used undiluted, 20° C., 60 minute application), 99.9%. Besides, the “EBAAP virüs titer” value in the series with Adenovirus Type 5 (Av-5) (AV-5, 5 minutes, clean medium) is on record as 4.0 Logarithmic TCID50; in the series on Adenovirus Type 5 (Av-5) (setting [4]) it was 4.0 Logarithmic TCID50; in the series with Adenovirus Type 5 (Av-5) (AV-5, 60 minutes, clean medium), 2.0 Logarithmic TCID50; with Adenovirus Type 5 (Av-5) (setting [5]) it was 2.0 Logarithmic TCID50.

As to `OB(O)O` [boric acid], in the series with enteric bacteria, the antibacterial activity entry was “has antibacterial activity”.

As for `[K+].[K+].[O-]B1OB2OB([O-])OB(O1)O2` [potassium tetraborate], in the series on Penicillium expansium, the “minimum concentration preventing micelle growth” value was 0.1%.
